Data as given in US6218431A, “Substituted biphenyls” (Bayer Corporation, priority 1997, dated 2001).

target: T1, glucagon receptor (Homo sapiens, UniProt P47871); experiment: glucagon receptor binding assay (125I-glucagon, CHO-HGR membranes); conditions: 20 μM; reported where 20 μM did not reduce glucagon binding by 50%
T1 construct: expressed in transfected cells; host or cells: Chinese Hamster Ovary cells (CHO-HGR), membranes
Procedure: The affinity for the glucagon receptor of compounds of the present invention is determined by the glucagon receptor binding assay. Membranes were prepared from Chinese Hamster Ovary cells expressing the glucagon receptor (CHO-HGR) by scraping the cells into hypotonic lysis buffer (10 mM Tris, pH 7.4, 2 mM EDTA, 5 mM MgCl2 and 1 mM PMSF) and subjecting the material to Polytron homogenization. Nuclei were removed by a 15-min 800×g centrifugation step conducted at 4° C. Membranes containing the receptor were collected by centrifugation at 15,000×gfor 15 min at 4° C. The membranes were washed once in lysis buffer and suspended in 0.25 M sucrose, 10 mM Tris, 5 mM EDTA, pH 7.4. The membranes were used in ligand binding studies as reported (Yoo-Warren, H., Willse, A. G., Hancock, N., Hull, J., McCaleb, M., and Livingston, J. Regulation of Rat Glucagon Receptor Expression. Biochem. Biophysical Res. Commun. 1994, 205, 347-353). In brief, 10 ug of membrane protein was incubated in 130 μl of binding buffer that consisted of 20 mM Tris, […], 1 mM EDTA, 1 mg/ml BSA, and 1 mg/ml bacitracin. The membrane suspension was placed in each well of a 96-well filtration plate (glass fiber type C, Millipore). […] Following the addition of test compound, 50 μl of ^125 I-glucagon (9 fmol) (NEN) was added to each well. Control wells contained membranes, 0.5% DMSO (solvent for test compounds), radiolabeled glucagon without and with excess native glucagon (1 μM) to establish nonspecific binding. The plates were incubated for 60 min at room temperature, and then filtered on a Mllipore vacuum apparatus. Following a wash step with ice-cold PBS/0.1% BSA, the filters were punched into test tubes, and the membrane bound radioactivity was determined.

T1 sequence (P47871 26-477): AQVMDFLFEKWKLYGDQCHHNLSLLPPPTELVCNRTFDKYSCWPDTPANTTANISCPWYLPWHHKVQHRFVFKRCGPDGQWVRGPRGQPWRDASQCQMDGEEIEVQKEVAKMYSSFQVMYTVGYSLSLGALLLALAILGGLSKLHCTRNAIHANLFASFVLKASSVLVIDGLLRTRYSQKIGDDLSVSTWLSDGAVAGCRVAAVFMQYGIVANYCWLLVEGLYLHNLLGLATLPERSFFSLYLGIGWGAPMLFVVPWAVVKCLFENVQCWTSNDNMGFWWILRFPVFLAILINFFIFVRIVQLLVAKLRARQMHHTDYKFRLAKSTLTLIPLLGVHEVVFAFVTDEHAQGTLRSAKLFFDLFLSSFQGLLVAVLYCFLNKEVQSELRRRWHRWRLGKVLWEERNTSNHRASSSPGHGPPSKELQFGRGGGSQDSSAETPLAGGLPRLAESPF

Row | SMILES | inhibition at 20 µM [%]
1 | CCCCCc1c(C(C)C)nc(C(C)C)c(CO)c1-c1ccccc1OC [Example 173, 2,6-Diisopropyl-3-hydroxymethyl-4-(2-methoxyphenyl)-5-pentylpyridine] | 27.4
2 | CCCCCc1c(C(C)C)nc(C(C)C)c(CO)c1-c1ccc(F)c(C(O)c2ccc(F)cc2)c1 (stereo not drawn) [Example 181, 2,6-Diisopropyl-3-hydroxymethyl-4-[4-fluoro-3-(α-hydroxy-4-fluorobenzyl)phenyl]-5-pentylpyridine] | 46
3 | CC(C)c1nc(C(C)C)c(CN2CCC(N3CCCCC3)CC2)c(-c2ccc(F)cc2)c1CO [Example 74, 2,6-Diisopropyl-3-hydroxymethyl-4-(4-fluorophenyl)-5-[(4-piperidinopiperidin-1-yl)methyl]pyridine] | 27.1
4 | CCc1nc(CC)c(CO)c(-c2ccccc2)c1C=C(C)C [Example 5] | 12.4
5 | CC(C)c1nc(C(C)C)c(CN2CCN(c3ccccc3)CC2)c(-c2ccc(F)cc2)c1CO [Example 75, 2,6-Diisopropyl-3-hydroxymethyl-4-(4-fluorophenyl)-5-[(4-phenylpiperazin-1-yl)methyl]pyridine] | 34.2
6 | CCCC=Cc1c(C(C)C)nc(C(C)C)c(CO)c1-c1ccc(SC)cc1 [Example 174, 2,6-Diisopropyl-3hydroxymethyl-4-[4-(methylthio)phenyl]-5-(pent-1-enyl)pyridine] | 33.4
7 | CCCCCc1c(C(C)C)nc(C(C)C)c(CNCC)c1-c1ccc(F)cc1 [Example 123, 2,6-Diisopropyl-3-(ethylamino)methyl-4-(4-fluorophenyl)-5-pentylpyridine] | 49.2
8 | CCCCCc1c(C(C)C)nc(C(C)C)c(CN(C)C)c1-c1ccc(F)cc1 [Example 122, 2,6-Diisopropyl-3-(dimethylamino)methyl-4-(4-fluorophenyl)-5-pentyl-pyridine] | 7.54
9 | CC(C)c1nc(C(C)C)c(CCCCO)c(-c2ccc(F)cc2)c1CO [Example 88, 2,6-Diisopropyl-3-hydroxymethyl-4-(4-fluorophenyl)-5-(4-hydroxy-butyl)pyridine] | 24.8
10 | CCC(OC)c1c(C(C)C)nc(C(C)C)c(CO)c1-c1ccc(F)cc1 (racemic) [Example 99, (±)-2,6-Diisopropyl-3-hydroxymethyl-4-(4-fluorophenyl)-5-(1-methoxy-5-propyl)pyridine] | 43.2
11 | CCCCCc1c(C(C)C)nc(C(C)C)c(CN)c1-c1ccc(F)cc1 [Example 121, 2,6-Diisopropyl-3-aminomethyl-4-(4fluorophenyl)-5-pentylpyridine] | 26.2
12 | CCCC=Cc1c(C(C)C)nc(C(C)C)c(CO)c1-c1ccccc1C [Example 141, 2,6-Diisopropyl-3-hydroxymethyl-4-(2-methylphenyl)-5-(pent-1-enyl)-pyridine] | 34
13 | CCCCCc1c(C(C)C)nc(C(C)C)c(CO)c1-c1ccc(O)cc1 [Example 161, 2,6-Diisopropyl-3-hydroxymethyl-4-(4-hydroxyphenyl)-5-pentylpyridine] | 24
14 | CC(C)c1nc(C(C)C)c(CN2CCOCC2)c(-c2ccc(F)cc2)c1CO [Example 69, 2,6-Diisopropyl-3-hydroxymethyl-4-(4-fluorophenyl)-5-(morpholinomethyl)pyridine] | 40.2
15 | CCCC=Cc1c(C(C)C)nc(C(C)C)c(CO)c1-c1ccc(OCc2ccccc2)cc1 [Example 160, 2,6-Diisopropyl-3-hydroxymethyl-4-(4-benzyloxyphenyl)-5-(pent-1-enyl)pyridine] | 21

same assay, conditions: 125I-glucagon; 60 min at room temperature; read-out: IC50

Row | SMILES | IC50 [nM]
16 | CC(C)c1nc(C(C)C)c(CCc2ccccc2)c(-c2ccc(F)cc2)c1CO [Example 37, 2,6-Diisopropyl-3-hydroxymethyl-4-(4-fluorophenyl)-5-(2-phenylethyl)pyridine] | 750
17 | CCCc1c(C(C)C)nc(C(C)C)c(CO)c1-c1ccc(F)cc1O (single isomer, unassigned) [Example 239-E2, 2,6-Diisopropyl-3-(1-hydroxymethyl)-4-(4-fluoro-2-hydroxyphenyl)-5-propylpyridine] | 50
18 | CCCCCc1c(C(C)C)nc(C(C)C)c(C(O)CO)c1-c1ccc(F)cc1 (racemic) [Example 124, (±)-2,6-Diisopropyl-3-(1,2-dihydroxyethyl)-4-(4-fluorophenyl)-5-pentyl-pyridine] | 12000
19 | CC(C)c1nc(C(C)C)c(CSc2cccc3ccccc23)c(-c2ccc(F)cc2)c1CO [Example 51, 2,6-Diisopropyl-3-hydroxymethyl-4-(4-fluorophenyl)-5-(1-naphthylthio)-methylpyridine] | 16000
20 | CC(C)c1nc(C(C)C)c(CN2CCCCC2)c(-c2ccc(F)cc2)c1CO [Example 70, 2,6-Diisopropyl-3-hydroxymethyl-4-(4-fluorophenyl)-5-(piperidinomethyl)pyridine] | 12000
21 | CC(C)=Cc1c(C(C)C)nc(C(C)C)c(CO)c1-c1ccccc1 [Example 11] | 8000
22 | CCCCCc1c(C(C)C)cc(C(C)C)c(C(C)O)c1-c1ccc(F)cc1 (single isomer, unassigned; (+)) [Example 243, (+)-3,5-Diisopropyl-2-(1-hydroxyethyl)-6-pentyl-4'-fluoro-1,1'-biphenyl] | 86
23 | CCCCCc1c(C(C)C)cc(C(C)C)c(C(C)O)c1-c1ccc(F)cc1 (stereo not shown) [Example 191, 3,5-Diisopropyl-2-(1-hydroxyethyl)-6-pentyl-4'-fluoro-1,1'-biphenyl] | 130
24 | Cc1c(F)c(F)c(SCc2c(C(C)C)cc(C(C)C)c(CO)c2-c2ccc(F)cc2)c(F)c1F [Example 286] | 18000
25 | CC(C)CCCc1c(C(C)C)nc(C(C)C)c(CO)c1-c1ccc(F)cc1 [Example 30, 2,6-Diisopropyl-3-hydroxymethyl-4-(4-fluorophenyl)-5-(4-methylpentyl)pyridine] | 900
26 | CC1=CC(C)(C)Cc2c1nc(C(C)C)c(C(C)O)c2-c1ccc(F)cc1 (stereo not shown) [Example 237, 2-Isopropyl-3-(1-hydroxyethyl)-4-(4-fluorophenyl)-5,6-dihydro-6,6,8-trimethylquinoline] | 1200
27 | CCCCCC=Cc1c(C(C)C)nc(C(C)C)c(CO)c1-c1ccc(F)cc1 [Example 32, 2,6-Diisopropyl-3-hydroxymethyl-4-(4-fluorophenyl)-5-(1-heptenyl)-pyridine] | 1100
28 | CCCCCc1c(C(C)C)nc(C(C)C)c(CO)c1-c1ccccc1O [Example 163, 2,6-Diisopropyl-3-hydroxymethyl-4-(2-hydroxyphenyl)-5-pentylpyridine] | 500
29 | CC(C)c1nc(C(C)C)c(CSc2ccccc2)c(-c2ccc(F)cc2)c1CO [Example 47, 2,6Diisopropyl-3-hydroxymethyl-4-(4fluorophenyl)-5[(phenylthio)-methyl]pyridine] | 1500
30 | CC(C)c1nc(C(C)C)c(CCCc2ccccc2)c(-c2ccc(F)cc2)c1CO [Example 83] | 650
31 | CC(C)c1cc(C(C)C)c(CSc2cc(Cl)cc(Cl)c2)c(-c2ccc(F)cc2)c1CO [Example 285] | 9000
32 | CC(C)c1nc(C(C)C)c(CCCC2OCCO2)c(-c2ccc(F)cc2)c1CO [Example 46] | 9000
33 | CC(C)c1nc2c(c(-c3ccc(F)cc3)c1C(C)O)CCCC2(C)C (stereo not shown) [Example 231, 2-Isopropyl-3-(1-hydroxyethyl)-4-(4-fluorophenyl)-5,6,7,8-tetrahydro-8,8-dimethylquinoline] | 500
34 | C=CCc1c(C(C)C)nc(C(C)C)c(CO)c1-c1ccc(F)cc1 [Example 87, 2,6-Diisopropyl-3-hydroxymethyl-4-(4fluorophenyl)-5-(2-propenyl)-pyridine] | 1900
35 | CCCCCCc1c(C(C)C)nc(C(C)C)c(CO)c1-c1ccccc1 [Example 16, 2,6Diisopropyl-3-hydroxymethyl-4-phenyl-5-hexylpyridine] | 850
36 | CCCCc1c(C(C)C)nc(C(C)C)c(CO)c1-c1ccc(F)cc1 [Example 24, 2,6-Diisopropyl-3-hydroxymethal-4-(4fluorophenyl)-5-butylpyridine] | 750
37 | CCCCCCCc1c(C(C)C)nc(C(C)C)c(CO)c1-c1ccc(F)cc1 [Example 35, 2,6-Diisopropyl-3-hydroxymethyl-4-(4-fluorophenyl)-5-heptylpyridine] | 700
38 | Cc1ccc(SCc2c(C(C)C)cc(C(C)C)c(C(C)O)c2-c2ccc(F)cc2)cc1 (single isomer, unassigned; (+)) [Example 249, (+)-3,5-Diisopropyl-2-[(p-tolylthio)methyl]-6-(1-hydroxyethyl)-4'-fluoro-1,1'-biphenyl] | 130
39 | CC(C)c1nc(C(C)C)c(CO)c(-c2ccc(F)cc2)c1C=CCCc1ccccc1 [Example 38, 2,6-Diisopropyl-3-hydroxymethyl-4-(4-fluorophenyl)-5-(4phenyl-1-butenyl)pyridine] | 600
40 | Cc1cccc(CCc2c(C(C)C)nc(C(C)C)c(CO)c2-c2ccc(F)cc2)c1 [Example 44, 2,6-Diisopropyl-3-hydroxymethyl-4-(4-fluorophenyl)-5-[2-(3-methyl-phenyl)ethyl]pyridine] | 1000
